In article PMC11869428 (Microbial Cell Factories, 2025):

Molecular target: T1, GenP (Micromonospora echinospora, UniProt A0A1C4WLH3)
T1 sequence (A0A1C4WLH3 1-268): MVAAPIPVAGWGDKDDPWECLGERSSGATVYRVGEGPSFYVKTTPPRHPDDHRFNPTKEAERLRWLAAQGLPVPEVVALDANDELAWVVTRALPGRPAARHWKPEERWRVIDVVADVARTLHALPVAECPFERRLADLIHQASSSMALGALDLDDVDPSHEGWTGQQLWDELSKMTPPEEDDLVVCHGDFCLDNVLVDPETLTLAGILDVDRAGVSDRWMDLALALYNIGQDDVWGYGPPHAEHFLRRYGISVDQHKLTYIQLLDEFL
Assay: preparative phosphorylation, HPLC-ELSD
Type: biochemical
Conditions: ATP […], MgCl2 […], Tris […] pH […] °C, […] h

In the case of CN[C@@H]1[C@@H](O)[C@@H](O[C@@H]2[C@@H](O)[C@H](O[C@H]3O[C@H](CN)[C@@H](O)[C@H](O)[C@H]3N)[C@@H](N)C[C@H]2N)OC[C@]1(C)O [JI-20A], the “preparative phosphorylation, HPLC-ELSD” value is reported as “JI-20A-P, JI-20Ba-P, and JI-20B-P were obtained through the catalysis of GenP”.
